Results from US12590111B2, “Flavonoid derivative for treating dental caries” (Mühlbauer Technology GmbH, priority 2019, dated 2026).

How the values were obtained:
[1] = molecular target: T1, GtfC enzyme activity of S. mutans (Streptococcus mutans serotype c, UniProt P13470); assay: GtfC activity with flavonoid derivative bound to hydroxyapatite; format: biochemical; conditions: bound to HAP as in Example 4; activity in supernatant; FIG. 4
T1 construct: purchased nzytech
Protocol: ApiBisPhos UD was bound to HAP as described in Example 4 and then incubated with GtfC as described in Example 3. The HAP was then centrifuged off and the GtfC activity in the supernatant was then determined as described in Example 3. A similar procedure was followed with the further flavonoid derivative “ApiBisPhos EG” according to the invention. […] In other words, the further example of a flavonoid derivative according to the invention (“ApiBisPhos EG”) confirms the successful functioning of the present invention as the basis for achieving the advantage according to the invention based on the adhesion of the flavonoid derivative according to the invention to the tooth surface comprising hydroxyapatite, so that the flavonoid derivative can prevent or to a great extent inhibit the formation of biofilm causing dental diseases on the tooth surfaces treated with the flavonoid derivative in the long term.

[2] = molecular target: T2, glucosyltransferase C of S. mutans (Streptococcus mutans serotype c, UniProt P13470); assay: Inhibition of glucosyltransferase GtfC activity (fructose release, K-FRUGL kit); format: biochemical; conditions: for inhibition of glucosyltransferase C activity: 30 mM sucrose, pH 6.0, 1 h, 37° C.; for remaining enzyme activity: normalized to solvent control, FIG. 2
T2 construct: purchased nzytech
Protocol: (§1) For this purpose, the test substance was resuspended in a DMSO/ethanol mixture (20/80%) and then diluted in the reaction mixture to the concentration to be tested (final concentration DMSO/ethanol 2/8%). The glucosyltransferase GtfC (0.3 μg, nzytech) was incubated in 100 mM potassium phosphate buffer, pH 6.0 with 30 mM sucrose for one hour at 37° C. in the presence of the test substances. As a positive control, the enzyme activity was measured in the presence of DMSO/ethanol (2/8%). […] For this purpose, the D-fructose and D-glucose assay kit from Megazyme (K-FRUGL) was used.
D-glucose and D-fructose are phosphorylated in the presence of adenosine-5-triphosphate (ATP) to glucose-6-phosphate (G-6-P) and fructose-6-phosphate (F-6-P) by the enzyme hexokinase (HK), producing adenosine 5′-diphosphate (ADP) (1), (2).
In the presence of the enzyme glucose-6-phosphate dehydrogenase (G6P-DH), G-6-P is oxidized to gluconate-6-phosphate by nicotinamide adenine dinucleotide (NADP^+). This produces reduced nicotinamide adenine dinucleotide phosphate (NADPH) (3).
The amount of NADPH formed in this reaction corresponds stoichiometrically to the amount of D-glucose. The absorption of NADPH is measured at 340 nm.
After completion of the reaction (3), F-6-P is converted to G-6-P by phosphoglucose isomerase (PGI) (4).
The G-6-P formed reacts in turn with NADP^+ to form gluconate-6-phosphate and NADPH, which leads to a further increase in absorption and correlates stoichiometrically with the amount of D-fructose.
(§2) 9 independent reaction batches were measured in triplicate and the enzyme activity was normalized to the solvent control.

S. mutans biofilm = S. mutans biofilm formation on saliva-coated hydroxyapatite disks (crystal violet); format: cell-based; conditions: HAP disks pretreated with 60 μl 10 mM, 60 min; 24 h culture at 37° C.; relative to solvent control
Protocol: In this example, it was investigated whether “ApibisPhos UD” has a significant influence on S. mutans-mediated biofilm formation using hydroxyapatite discs coated with saliva under conditions simulating the oral cavity.
For this purpose, sterile hydroxyapatite disks (Clarkson Chromatography Products Inc., Ø5 mm×2 mm) were coated with saliva (Lee Biosolutions, human pooled donors) as substrate for 60 minutes and then incubated with ApiBisPhos UD (60 μl; 10 mM in DMSO/ethanol mixture, 20/80%) for 60 minutes. After washing twice with DPBS, these pretreated hydroxyapatite disks were coated with S. mutans preculture (1.5×10^8 bacteria per ml in Balmelli broth) and cultured aerobically at 37° C. for 24 hours. The grown biofilm was fixed with 100% ethanol (30 min, 25° C.), stained with 0.06% (w/v) crystal violet (60 min, 25° C.) and the dye eluted with 30% (v/v) acetic acid quantified by measuring the absorbance at 570 nm. The measured values were set in relation to the solvent control (DMSO/ethanol mixture; 20/80%), i.e. without the use of ApibisPhos UD.

[3] = Solubility in the GtfC reaction mixture; format: physicochemical; conditions: 6 mM; final DMSO/ethanol 2/8%
Protocol: as §1, §2

[4] = pH 6, read-out: inhibition of glucosyltransferase C activity

T2 sequence (P13470 35-1455): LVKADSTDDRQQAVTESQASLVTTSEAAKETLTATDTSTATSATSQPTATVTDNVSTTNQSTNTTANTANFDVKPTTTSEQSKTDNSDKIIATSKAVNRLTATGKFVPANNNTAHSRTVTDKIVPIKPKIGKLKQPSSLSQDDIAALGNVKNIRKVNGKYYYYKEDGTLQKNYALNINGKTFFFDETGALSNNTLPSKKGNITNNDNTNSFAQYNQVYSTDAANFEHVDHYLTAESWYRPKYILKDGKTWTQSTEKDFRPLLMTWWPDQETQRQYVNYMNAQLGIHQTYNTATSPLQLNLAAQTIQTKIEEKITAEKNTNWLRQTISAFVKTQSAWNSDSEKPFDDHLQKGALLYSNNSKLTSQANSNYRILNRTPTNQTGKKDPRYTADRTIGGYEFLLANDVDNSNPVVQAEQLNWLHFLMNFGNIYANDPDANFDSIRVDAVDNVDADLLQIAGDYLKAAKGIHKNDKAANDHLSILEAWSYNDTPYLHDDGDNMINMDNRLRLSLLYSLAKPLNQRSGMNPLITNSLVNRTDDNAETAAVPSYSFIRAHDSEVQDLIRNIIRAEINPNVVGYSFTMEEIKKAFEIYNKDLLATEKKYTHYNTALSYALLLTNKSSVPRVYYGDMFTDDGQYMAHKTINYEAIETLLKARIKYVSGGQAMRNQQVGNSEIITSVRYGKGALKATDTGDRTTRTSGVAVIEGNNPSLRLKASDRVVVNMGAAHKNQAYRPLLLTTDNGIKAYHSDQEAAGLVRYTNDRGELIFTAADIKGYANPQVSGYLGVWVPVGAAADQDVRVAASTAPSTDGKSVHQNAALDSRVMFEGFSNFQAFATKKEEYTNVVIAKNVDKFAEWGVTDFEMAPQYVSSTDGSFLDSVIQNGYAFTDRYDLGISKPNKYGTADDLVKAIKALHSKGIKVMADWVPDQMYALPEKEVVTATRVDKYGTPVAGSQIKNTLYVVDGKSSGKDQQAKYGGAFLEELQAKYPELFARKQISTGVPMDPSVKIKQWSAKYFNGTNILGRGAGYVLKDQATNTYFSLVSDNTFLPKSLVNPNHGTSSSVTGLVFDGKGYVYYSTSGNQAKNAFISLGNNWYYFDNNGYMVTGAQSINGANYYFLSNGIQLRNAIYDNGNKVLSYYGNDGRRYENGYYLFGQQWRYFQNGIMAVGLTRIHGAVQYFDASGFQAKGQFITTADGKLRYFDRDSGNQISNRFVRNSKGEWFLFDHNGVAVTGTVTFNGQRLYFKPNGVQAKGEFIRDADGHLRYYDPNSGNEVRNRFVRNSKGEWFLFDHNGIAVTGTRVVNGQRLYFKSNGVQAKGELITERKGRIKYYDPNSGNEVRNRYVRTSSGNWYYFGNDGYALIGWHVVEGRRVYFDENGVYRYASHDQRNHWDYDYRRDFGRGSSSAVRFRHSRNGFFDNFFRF
T1 sequence (P13470 35-1455): as above

| Compound | inhibition of GtfC enzyme activity by substance bound to hydroxyapatite [1] | inhibition of glucosyltransferase C activity ([2]; 1 mM) [%] | remaining enzyme activity ([2]; 1 mM) | inhibition of glucosyltransferase C activity ([2]; 3 mM) [%] | remaining enzyme activity ([2]; 3 mM) | inhibition of glucosyltransferase C activity ([2]; 6 mM) [%] | inhibition of biofilm formation on HAP surfaces (S. mutans biofilm) [%] | inhibition at 1000 µM [2, 4] [%] | inhibition at 3000 µM [2, 4] [%] | solubility [3] |
| --- | --- | --- | --- | --- | --- | --- | --- | --- | --- | --- |
| Mixture of 4′-(12,12-bisphosphono-3,6,9-trioxadodecanoxy)-7,5-dihydroxyflavone and 7-(12,12-bisphosphono-3,6,9-trioxadodecanoxy)-4′,5-dihydroxyflavone [ApiBisPhos EG] | inhibit the GtfC enzyme activity of S. mutans to a considerable degree |  |  |  |  |  |  |  |  |  |
| Mixture of 4′-(11,11-bisphosphonoundecanoxy)-7,5-dihydroxyflavone and 7-(11,11-bisphosphonoundecanoxy)-4′, 5-dihydroxyflavone [ApiBisPhos UD] | inhibit the GtfC enzyme activity of S. mutans to a considerable degree | 72±9 | less than 30% | 90±4 | about 10% | 99±2 | 26±9 |  |  |  |
| O=c1cc(-c2ccc(O)cc2)oc2cc(O)cc(O)c12 [apigenin, reference compound] |  |  |  |  |  |  |  | 38 ± 10 | 53 ± 6 | insufficient solubility |
